# According to patent US12728139B2, “Methods of preparing purified atomic quantum clusters” (NANOGAP SUB-NM-POWDER, S.A., priority 2018, dated 2026):
# pIC50: −log10 of the molar value.
# What was measured:
# A549 proliferating cells = test: STORM super-resolution imaging of chromatin organization; assay type: cell-based, human; conditions: Ag3-AQCs 55.61 ng/mL or AgNO3 5 μM, 30 min
# Description: 1.5×10^4 A549 cells were plated on 8-well Lab-tek cover glass chamber (Nunc) and 24 hours later cells were synchronized in S phase by adding 0.8 mM hydroxyurea (H-8627, Sigma) to the culture medium. […] The medium was removed and replaced with complete medium containing EdU (20 μM) for 2 hours. Cells were then fixed and permeabilized with Methanol-Acetone (1:1) solution at 20° C. for 10 minutes and blocked (3% BSA+0.01% Triton X-100) for 1 hour at RT. Finally, cells were washed three times with PBS and stained with Alexa Fluor 647 following the instructions provided by the manufacturer (Click-iT® EdU Alexa Fluor®488 Imaging Kit, Thermo Fisher Scientific).
# The chromatin was imaged using a commercial microscope system from Nikon Instruments (NSTORM). […]
# STORM images were analysed and rendered as previously described in Bates et al. 2007. […]
# Since the labelling density of the EdU was very high, all of the images were roughly normalized to the same number of localizations per μm^2 of the nucleus, by varying the number of frames used in the final reconstructed image. The percentage of non-zero pixels of the reconstructed images was then calculated in ImageJ, and the percentage of nuclear area covered by EdU also calculated. The density of chromatin per μm^2 was extracted by dividing the number of localizations (same for each recorded nucleus) over the chromatin-covered area.
# A549 Luc-C8 cells = test: Luminescent cell viability assay; assay type: cell-based, human; conditions: 24 hours
# Description: Data represent mean±SD of 2 independent experiments with 3 replicas per experiment. Mann Whitney test ((*) p<0.01).
# After that, treatments were removed and 20 μL of lysis buffer (Promega) added to wells and incubated for 30 minutes, shacking. Lysates were then transferred to 1.5 mL tubes and centrifuged for 15 minutes at high speed.
# [1] = tested on: A549 orthotopic lung cancer; test: Orthotopic lung cancer model; conditions: CDDP 4 mg/kg intravenously, up to 37 days
# Description: (a) Tumour growth measured in vivo by luminescence (IVIS® Spectrum).
# A suspension of 1×10^6 non-small cell lung carcinoma luciferase expressing cells (A549 Luc-C8 Bioware® cell line) in PBS (50 μL) was injected through the intercostal space into the left lung of athymic nude mice. During this procedure, mice were anaesthetized using 4% isoflurane inhalation. To follow tumour growth, luciferin was injected into the intraperitoneal cavity at a dose of 150 mg/kg body weight approximately 5 minutes before imaging. Luciferase bioluminescence was imaged under vaporized isofluran anaesthesia using an IVIS® Living Image® System (Caliper Life Sciences, Hopkinton, MA, USA) that allowed monitoring of both the primary tumour growth and cancer cell dissemination in a semi quantitative fashion. After in vivo imaging for several days (up to 37 days), the mice were sacrificed, and protein extracts were obtained from different organs to quantify luciferase activity.
# single nucleosomes = biological target: T1, single nucleosomes (Homo sapiens, UniProt P62805+P68431+Q16778+Q7L7L0); test: Single-nucleosome destabilization, gel shift assay; assay type: biochemical; conditions: etoposide 60 μM or doxorubicin 20 μM 4 hours; Ag3-AQCs 83 ng/mL 30 minutes
# T1 construct: purchased New England Biolabs, Ipswich, USA
# Description: From each reaction, half of the sample was electrophoresed under non-denaturing conditions, and the gel was stained with ethidium bromide (left, upper panel) and silver (left, lower panel). The remaining portion of the sample was analysed to check that equal amounts of histones were loaded in all cases (right panel). The position of unbound DNA, assembled nucleosomes and histones are indicated. (b) Nucleosomes were incubated with etoposide or doxorubicin as in (a) or the indicated Ag3-AQC dilutions (initial concentration, AQCs 1:10=83 ng/mL). Samples were analysed by native polyacrylamide electrophoresis, and the gel was stained first with ethidium bromide (top) and subsequently with silver (bottom) to visualize histones. This image is representative of two independent experiments.
# Single nucleosome preparations were obtained using the Epimark Nucleosome Assembly Kit (New England Biolabs, Ipswich, USA) following the dilution assembly protocol from the manufacturer.
# For the gel shift assay, 5% non-denaturing polyacrylamide gels were prepared using TBE buffer. After a 1 hour preliminary run at 100 V, the reactions containing nucleosomes were mixed with DNA loading buffer, and the electrophoresis was performed at 100 V for 2 h. Gels were stained with ethidium bromide to visualize DNA, and the signal was captured using the Gel Doc XR system (Bio-Rad). […]
# A549 cells = test: Quantification of platinum bound to DNA (ICP-MS) in A549 cells; assay type: cell-based, human; conditions: proliferating A549 cells, CDDP 50 μM
# Description: DNA-bound platinum was assessed as previously described in Comenge et al. PLoS One 2012, 7: e47562. Briefly, 5×10^5 A549, MCF7 or U87-luc cells were seeded in 60 mm diameter plates. […] After the treatment, the cells were washed twice with PBS, trypsinised and centrifuged. The supernatants were removed, and the cell pellets were stored at −20° C. overnight. […] After 24 hours, the animals were sacrificed, and the organs were removed. Small pieces (1-2 mm^3) of tumour (lung) and other organs (heart, liver, kidney, spleen, brain and bone marrow) were separated using a scalpel. From this point, the steps for DNA extraction are common to cells and tissue samples. After freezing overnight, cell or tissue pellets were suspended in 300 μL of lysis buffer (150 mM Tris pH 8; 100 mM EDTA pH 8; 100 mM NaCl; 0.5% SDS) and 10 μL of Proteinase K (20 μg/μL). […] The DNA concentration was determined using a NanoDrop 2000 spectrophotometer (Thermofisher, Spain). […] Finally, the amount of platinum was determined by mass spectrometry using an ICP-MS BRUCKER 820-MS with a low-flow glass Micromist nebulizer and a double-pass spray chamber with a Peltier cooling (3° C.) and quartz torch (Bruker Corp., Billerica, MA, USA).
# octamer = conditions: 25° C., ITC and fluorescence; cited from earlier work
Structure (SMILES),IC5 (A549 Luc-C8 cells) [µM],IC25 (A549 Luc-C8 cells) [µM],pIC50 (A549 Luc-C8 cells),IC75 (A549 Luc-C8 cells) [µM],also measured
"O=[N+]([O-])[O-].[Ag+] [AgNO3, Silver nitrate]",,,,,Chromatin compaction (STORM images) (A549 proliferating cells): did not affect chromatin compaction
"N.N.O=C([O-])C1(C(=O)[O-])CCC1.[Pt+2] [CBDCA, Carboplatin]",0.25,0.5,3.00,2000,
"[NH2][Pt]([NH2])([Cl])[Cl] [CDDP, Cisplatin]",5,10,4.30,100,Tumour growth in vivo (bioluminescence) [1]: significantly reduced the growth of tumours
"COc1cccc2c1C(=O)c1c(O)c3c(c(O)c1C2=O)C[C@@](O)(C(=O)CO)C[C@@H]3O[C@H]1C[C@H](N)[C@H](O)[C@H](C)O1 [DOX, Doxorubicin]",,,,,Dissociation of single nucleosomes (single nucleosomes): dissociated nucleosomes; Increase of amount of CDDP bound to DNA on co-administration with CDDP (A549 cells): did not increase CDDP binding to DNA
"CC[N+](C)(CC)CCC[n+]1c(-c2ccccc2)c2cc(N)ccc2c2ccc(N)cc21.[I-].[I-] [IP, Propidium iodide]",,,,,Formation constant of complex with octamer (octamer): 140000 M⁻¹
"O=C1[O][Pt]2([NH][C@@H]3CCCC[C@H]3[NH]2)[O]C1=O [OXA, Oxaliplatin]",2.5,12.5,4.30,200,
COc1cc([C@@H]2c3cc4c(cc3[C@@H](O[C@@H]3O[C@@H]5CO[C@@H](C)O[C@H]5[C@H](O)[C@H]3O)[C@H]3COC(=O)[C@H]23)OCO4)cc(OC)c1O [etoposide],,,,,Dissociation of single nucleosomes (single nucleosomes): has no effect
